Measurements as given in ChEMBL document CHEMBL1777709, “Asymmetric synthesis and biological evaluations of (+)- and (-)-6-dimethoxymethyl-1,4-dihydropyridine-3-carboxylic acid derivatives blocking N-type calcium channels” (Bioorg Med Chem Lett, 2011).

What was measured:
[1] = Inhibition of Voltage-dependent N-type calcium channel- mediated calcium influx in human IMR-32 cells; type: cell-based
[2] = molecular target: Voltage-gated L-type calcium channel (Rattus norvegicus, UniProt P22002+Q02485+P27732); test: Inhibition of Voltage-dependent L-type calcium channel in rat thoracic aorta ring; type: tissue-based
[3] = test system: Rattus norvegicus; test: Ratio of inhibition of L-type calcium channel to inhibition of N-type calcium channel in rat hypertension model at 3 ug/ml, iv; type: functional

SMILES	IC50 ([1]; Homo sapiens, IMR-32) [µM]	IC50 ([1]; imr-32) [µM]	IC50 [2] [µM]	Ratio [3]
COC(OC)C1=C(C(=O)OC/C=C/c2ccccc2)C(c2cccc(Cl)c2)C(C(=O)O)=C(C)N1 (racemic)	3	–	–	–
CC1=C(C(=O)O)C(c2cccc([N+](=O)[O-])c2)C(C(=O)OC/C=C/c2ccccc2)=C(C)N1 (racemic)	3.5	–	–	–
COC(OC)C1=C(C(=O)OC/C=C/c2ccccc2)C(c2cccc(Cl)c2)C(C(=O)O)=C(C)N1 (single isomer, unassigned; (+))	–	2.6	13.2	–
COC(OC)C1=C(C(=O)OC/C=C/c2ccccc2)C(c2cccc(Cl)c2)C(C(=O)O)=C(C)N1 (stereo in doubt; (-)-3)	–	–	1.8	–
COCCOC(=O)C1=C(C)NC(C)=C(C(=O)OC/C=C/c2ccccc2)C1c1cccc([N+](=O)[O-])c1 (configuration not stated) [CILNIDIPINE]	1.6	–	–	1
